The test system of one experiment is S. aureus RN4220. As to the kind of experiment: MIC microbroth dilution, S. aureus RN4220. Type of experiment: cell-based, Staphylococcus aureus. Conditions: Staphylococcus aureus. Background: In broth dilution the organism is exposed to a series of concentrations in liquid medium.
In another experiment the test system is E. coli MG1655 ΔacrAB. Description: microbe, parasite or virus in culture. Type of experiment: cell-based, Escherichia coli. Conditions: Escherichia coli.
A further experiment relates to E. coli MG1655. Description: MIC microbroth dilution, E. coli MG1655 with intact AcrAB efflux pump. The experiment is classed as cell-based, Escherichia coli. Conditions: Escherichia coli; E. coli MG1655, Table 3; read-out: MIC (μm).
The subject of a further experiment is M. tuberculosis H37Rv. As to the kind of experiment: MIC microbroth dilution, M. tuberculosis H37Rv. Type of experiment: cell-based. Conditions: Mycobacterium tuberculosis.
Experiment [1] concerns F. tularensis LVS. Conditions: data according to Ref. 69; cited from earlier work.
The test system of another experiment is B. pseudomallei Bp400. The following applies: B. pseudomallei Bp400, data according to Ref. 69; cited from earlier work.
The target of experiment [2] is M. tuberculosis enoyl-ACP reductase InhA (Mycobacterium tuberculosis (strain ATCC 25618 / H37Rv), UniProt P9WGR1). As to the kind of experiment: InhA inhibition kinetics. Type of experiment: biochemical.
Experiment [3] deals with F. tularensis LVS. Description: microbe, parasite or virus in culture. The experiment is classed as cell-based. Conditions: Francisella tularensis, read-out: Francisella tularensis LVS, % inhib.
A further experiment deals with Bt38. As to the kind of experiment: microbe, parasite or virus in culture. Type of experiment: cell-based. The following applies: Burkholderia pseudomallei, read-out: Bt38, % inhib.
The target in experiment [4] is Francisella tularensis FabI (Francisella tularensis subsp. tularensis (strain SCHU S4 / Schu 4), UniProt Q5NGQ3). As to the kind of experiment: biochemical.
A further experiment addresses bpFabI (Burkholderia pseudomallei, UniProt A0A0H3HP34). Description: biochemical.
The target in a further experiment is bpFabV (Burkholderia pseudomallei, UniProt Q63TE9). Type of experiment: biochemical. The following applies: read-out: Burkholderia pseudomallei IC50 (μM), bpFabV.
The next experiment concerns the target YpFabV (Yersinia pestis, UniProt Q8Z9U1). Description: biochemical.
A further experiment has as its system Yersinia pestis. As to the kind of experiment: microbe, parasite or virus in culture. Conditions: read-out: Yersinia pestis, % inhib. Type of experiment: cell-based.
[5] abbreviates: H37RV, 4-pyridones table, read-out: Mycobacterium tuberculosis MIC (μg/mL) H37Rv.

SMILES strings stand for the structures. ≈ marks a conversion by molar mass, not a printed value. Like-named read-outs stand apart in the source and are kept apart here. Marks after values point to notes of the source that are not given here.

For `CCc1ccc(Oc2ccccc2)c(O)c1` [PT01, 5-ethyl-2-phenoxyphenol], the MIC is 2.3 µM (≈ 0.493 µg/mL) with S. aureus RN4220 (RN4220, S. aureus RN4220, Table 3, read-out: MIC (μm)); 2.3 µM (≈ 0.493 µg/mL) with S. aureus RN4220 (RN4220, S. aureus RN4220, read-out: MIC); 0.6 µM (≈ 0.129 µg/mL) against E. coli MG1655 ΔacrAB (MG1655); 0.6 µM (≈ 0.129 µg/mL) with E. coli MG1655 ΔacrAB (MG1655, read-out: MIC (μm)); 18.7 µM (≈ 4.01 µg/mL) with E. coli MG1655; 72.9 µM in the experiment on M. tuberculosis H37Rv (M. tuberculosis H37Rv, Table 3, read-out: MIC (μm)). Besides, the “MIC (μM)” value in the experiment on F. tularensis LVS [1] is given as 0.1^c μM; with B. pseudomallei Bp400, 326.7^c μM.

Regarding `CCCCCCc1cc(=O)c(Oc2ccc(N)cc2C)cn1C` [PT155], the IC50 in experiment [2] is 107 nM; in [4], 53 nM; at bpFabI, 140 nM; on bpFabV, 3 ± 0.6 µM; on YpFabV it was more than 50000 nM. Besides, the inhibition at 5 µg/mL in the experiment with F. tularensis LVS [3] stood at 91%. Further, in the experiment with M. tuberculosis H37Rv (setting [5]), the MIC turned out to be 6.25 µg/mL. Besides, the inhibition at 20 µg/mL in the experiment with Bt38 amounted to 90%. In addition, the inhibition at 40 µg/mL in the experiment with Yersinia pestis worked out at 26%.

Regarding `CCCCCCc1cc(=O)c(Oc2ccc([N+](=O)[O-])cc2)cn1C` [PT156], the IC50 was 407 nM in experiment [2], 960 ± 100 nM against bpFabI, 0.56 ± 0.1 µM on bpFabV and 180 nM against YpFabV. Also, the inhibition at 5 µg/mL with F. tularensis LVS [3] amounted to 88%. The MIC with M. tuberculosis H37Rv (setting [5]) was found to be 50 µg/mL. For the same compound, the inhibition at 40 µg/mL in the experiment on Bt38 was 43%; in the experiment with Yersinia pestis, 29%.

By IC50 is commonly meant the concentration that inhibits the measured activity by half.

(Values after patent publication US10071965B2, “Pyridone FabI inhibitors and uses thereof” (priority 2015, dated 2018).)
